Data taken from US8178490B2, “Polybasic bacterial efflux pump inhibitors and therapeutic uses thereof” (priority 2007, dated 2012).

Test: Rat serum pharmacokinetics after 1.5-hour IV infusion
Format: in vivo
Details: two-compartment model; for Cmax / clearance: 1.5-hour IV infusion in 0.9% saline, dose (mg/kg) differs per compound; for clearance: read-out: Clearance (free drug clearance) (converted); for pharmacokinetic profile: […] IV infusion in 0.9% saline, total dose 2, 5, 10 or 20 mg/kg
Experimental: In the experiment depicted in Table 7, above, rat serum pharmacokinetics of selected inhibitor compounds was evaluated after 1.5-hour IV infusion of 1.5 ml solution of corresponding efflux pump inhibitor in 0.9% saline. Depending on the concentration used the total infused dose was 2, 5, 10 or 20 mg/kg. A two-compartment model was used to fit the data and calculate PK parameters.

## NCCN(CCN)C(=O)C[C@H](N)C(=O)N[C@@H](CCc1ccccc1)C(=O)Nc1cccc(C(F)(F)F)c1 [Compound 90]
  Cmax: 1220 ng/mL
  clearance: 103 mL/min/kg

## NCCN(CCN)C(=O)C[C@H](N)C(=O)N[C@@H](CCc1ccccc1)C(=O)NCc1ccc(F)c(C(F)(F)F)c1 [Compound 102]
  Cmax: 5050 ng/mL
  clearance: 43 mL/min/kg

## Cc1ccc(C)c(CNC(=O)[C@H](CCc2ccccc2)NC(=O)[C@@H](N)CC(=O)N(CCN)CCN)c1 [Compound 96]
  Cmax: 3850 ng/mL
  clearance: 51.8 mL/min/kg

## Cl.Cl.Cl.Cl.NCCN(CCN)C(=O)C[C@H](N)C(=O)NCC(=O)N[C@@H](CCc1ccccc1)C(=O)Nc1cnc2ccccc2c1 [Compound 348, 3-[(1S)-2-[bis(2-azaniumylethyl)carbamoyl]-1-[({[(1S)-1-carbamoyl-3-phenylpropyl]carbamoyl}methyl)carbamoyl]ethan-1-aminium]quinolin-1-ium tetrachloride]
  Cmax: 2200 ng/mL
  clearance: 328 mL/min/kg

## Cl.Cl.Cl.Cl.NCCN(CCN)C(=O)CC[C@H](N)C(=O)N[C@H](Cc1ccc(OC(F)(F)F)cc1)C(=O)Nc1cnc2ccccc2c1 [Compound 31, 3-[(1S)-3-[bis(2-azaniumylethyl)carbamoyl]-1-{[(1R)-1-carbamoyl-2-[4-(trifluoromethoxy)phenyl]ethyl]carbamoyl}propan-1-aminium]quinolin-1-ium tetrachloride]
  Cmax: 21900 ng/mL
  clearance: 30 mL/min/kg

## Cl.Cl.Cl.Cl.NCCN(CCN)C(=O)C[C@H](N)C(=O)N[C@H](Cc1ccc(C(F)(F)F)cc1)C(=O)Nc1cnc2ccccc2c1 [Compound 359, 3-[(1S)-2-[bis(2-azaniumylethyl)carbamoyl]-1-{[(1R)-1-carbamoyl-2-[4-(trifluoromethyl)phenyl]ethyl]carbamoyl}ethan-1-aminium]quinolin-1-ium tetrachloride]
  Cmax: 5030 ng/mL
  clearance: 48.2 mL/min/kg

## CC(C)Oc1ccc(NC(=O)[C@H](CCc2ccccc2)NC(=O)[C@@H](N)CC(=O)N(CCN)CCN)cc1 [Compound 214]
  Cmax: 1540 ng/mL
  clearance: 92.2 mL/min/kg

## NCCN(CCN)C(=O)C[C@H](N)C(=O)N[C@@H](CCc1ccccc1)C(=O)Nc1cc(Cl)c(Cl)cc1Cl [Compound 87]
  Cmax: 11000 ng/mL
  clearance: 64.3 mL/min/kg

## Cl.Cl.Cl.Cl.N[C@@H](CCC(=O)N1C[C@H](N)[C@@H](N)C1)C(=O)N[C@H](Cc1ccc(C(F)(F)F)cc1)C(=O)Nc1cnc2ccccc2c1 [Compound 33, 3-[(1S)-1-{[(1R)-1-carbamoyl-2-[4-(trifluoromethyl)phenyl]ethyl]carbamoyl}-4-[(3S,4S)-3,4-diazaniumylpyrrolidin-1-yl]-4-oxobutan-1-aminium]quinolin-1-ium tetrachloride]
  Cmax: 3980 ng/mL
  clearance: 105 mL/min/kg

## NCCN(CCN)C(=O)C[C@@H](N)C(=O)N[C@H](CCc1ccccc1)C(=O)Nc1cnc2ccccc2c1 [Compound 44, 3-[(1R)-2-[bis(2-azaniumylethyl)carbamoyl]-1-{[(1R)-1-carbamoyl-3-phenylpropyl]carbamoyl}ethan-1-aminium]quinolin-1-ium tetrachloride]
  Cmax: 2680 ng/mL
  clearance: 24.7 mL/min/kg

## NCCN(CCN)C(=O)C[C@H](N)C(=O)N[C@@H](CCc1ccccc1)C(=O)NCc1c(Cl)cccc1Cl [Compound 224]
  Cmax: 1590 ng/mL
  clearance: 66.2 mL/min/kg

## CC(C)Oc1ccc(NC(=O)[C@H](CCc2ccccc2)NC(=O)[C@@H](N)CC(=O)N(CCN)CCN)c(F)c1 [Compound 215]
  Cmax: 690 ng/mL
  clearance: 93.3 mL/min/kg

## Cl.Cl.Cl.Cl.N[C@@H](CCC(=O)N1C[C@H](N)[C@@H](N)C1)C(=O)N[C@H](CCc1ccccc1)C(=O)Nc1cnc2ccccc2c1 [Compound 41, 3-[(1S)-1-{[(1R)-1-carbamoyl-3-phenylpropyl]carbamoyl}-4-[(3S,4S)-3,4-diazaniumylpyrrolidin-1-yl]-4-oxobutan-1-aminium]quinolin-1-ium tetrachloride]
  Cmax: 8100 ng/mL
  clearance: 45.3 mL/min/kg

## COc1cc(OC(F)(F)F)ccc1CNC(=O)[C@H](CCc1ccccc1)NC(=O)[C@@H](N)CC(=O)N(CCN)CCN [Compound 233]
  Cmax: 4920 ng/mL
  clearance: 118 mL/min/kg

## NCCN(CCN)C(=O)C[C@H](N)C(=O)N[C@@H](CCc1ccccc1)C(=O)Nc1cnc2ccccc2c1 [Compound 2, 3-[(1S)-2-[bis(2-azaniumylethyl)carbamoyl]-1-{[(1S)-1-carbamoyl-3-phenylpropyl]carbamoyl}ethan-1-aminium]quinolin-1-ium tetrachloride]
  Cmax: 2250 ng/mL
  clearance: 217 mL/min/kg
  pharmacokinetic profile: particularly attractive pharmacokinetic profiles

## Cl.Cl.Cl.Cl.NCCN(CCN)C(=O)CC[C@H](N)C(=O)N[C@H](CCc1ccccc1)C(=O)Nc1cnc2ccccc2c1 [Compound 47, 3-[(1S)-3-[bis(2-azaniumylethyl)carbamoyl]-1-{[(1R)-1-carbamoyl-3-phenylpropyl]carbamoyl}propan-1-aminium]quinolin-1-ium tetrachloride]
  Cmax: 8100 ng/mL
  clearance: 28.3 mL/min/kg

## Cc1cc(C)c(NC(=O)[C@H](CCc2ccccc2)NC(=O)[C@@H](N)CC(=O)N(CCN)CCN)c(C)c1 [Compound 88]
  Cmax: 2500 ng/mL
  clearance: 28 mL/min/kg

## Cc1ccc(NC(=O)[C@H](CCc2ccccc2)NC(=O)[C@@H](N)CC(=O)N(CCN)CCN)cc1 [Compound 77]
  Cmax: 2960 ng/mL
  clearance: 63.2 mL/min/kg

## NCCN(CCN)C(=O)C[C@H](N)C(=O)N[C@@H](CCc1ccccc1)C(=O)NCc1ccc(OC(F)(F)F)cc1 [Compound 95]
  Cmax: 1750 ng/mL
  clearance: 30.2 mL/min/kg

## Cl.Cl.Cl.Cl.NCCN(CCN)C(=O)C[C@H](N)C(=O)N[C@H](CCc1ccccc1)C(=O)Nc1cnc2ccccc2c1 [Compound 48, 3-[(1S)-2-[bis(2-azaniumylethyl)carbamoyl]-1-{[(1R)-1-carbamoyl-3-phenylpropyl]carbamoyl}ethan-1-aminium]quinolin-1-ium tetrachloride]
  Cmax: 7200 ng/mL
  clearance: 26 mL/min/kg
  pharmacokinetic profile: particularly attractive pharmacokinetic profiles

## NCCN(CCN)C(=O)C[C@H](N)C(=O)N[C@@H](CCc1ccccc1)C(=O)Nc1ccc2cnccc2c1 [Compound 49]
  Cmax: 2390 ng/mL
  clearance: 70.2 mL/min/kg

## CC(C)Oc1ccc(CNC(=O)[C@H](CCc2ccccc2)NC(=O)[C@@H](N)CC(=O)N(CCN)CCN)cc1 [Compound 237]
  Cmax: 1260 ng/mL
  clearance: 70.8 mL/min/kg

## NCCN(CCN)C(=O)C[C@H](N)C(=O)NCC(=O)N(Cc1ccc(C(F)(F)F)cc1)c1cnc2ccccc2c1 [Compound 357, 3-[(1S)-2-[bis(2-azaniumylethyl)carbamoyl]-1-{[({[4-(trifluoromethyl)phenyl]methyl}carbamoyl)methyl]carbamoyl}ethan-1-aminium]quinolin-1-ium tetrachloride]
  Cmax: 660 ng/mL
  clearance: 145 mL/min/kg

## CCOc1ccc(NC(=O)[C@H](CCc2ccccc2)NC(=O)[C@@H](N)CC(=O)N(CCN)CCN)cc1 [Compound 85]
  Cmax: 13900 ng/mL
  clearance: 50 mL/min/kg

## CCCc1ccccc1NC(=O)[C@H](CCc1ccccc1)NC(=O)[C@@H](N)CC(=O)N(CCN)CCN [Compound 271]
  Cmax: 340 ng/mL
  clearance: 78.5 mL/min/kg

## Cl.Cl.Cl.Cl.NCCN(CCN)CCC[C@H](N)C(=O)N[C@H](CCc1ccccc1)C(=O)Nc1cnc2ccccc2c1 [Compound 46, 3-[(1S)-4-[bis(2-azaniumylethyl)amino]-1-{[(1R)-1-carbamoyl-3-phenylpropyl]carbamoyl}butan-1-aminium]quinolin-1-ium tetrachloride]
  Cmax: 4000 ng/mL
  clearance: 13.5 mL/min/kg
  pharmacokinetic profile: particularly attractive pharmacokinetic profiles

## Cl.Cl.Cl.Cl.NCCN(CCN)C(=O)C[C@H](N)C(=O)N[C@H](C(=O)Nc1cnc2ccccc2c1)C(O)c1ccc(C(F)(F)F)cc1 (stereo partly drawn) [Compound 169, 3-[(1S)-2-[bis(2-azaniumylethyl)carbamoyl]-1-{[(1S)-1-carbamoyl-2-hydroxy-2-[4-(trifluoromethyl)phenyl]ethyl]carbamoyl}ethan-1-aminium]quinolin-1-ium tetrachloride]
  Cmax: 22900 ng/mL
  clearance: 31.3 mL/min/kg

## Cc1cc(CNC(=O)[C@H](CCc2ccccc2)NC(=O)[C@@H](N)CC(=O)N(CCN)CCN)c(C(F)(F)F)o1 [Compound 67]
  Cmax: 2980 ng/mL
  clearance: 51.7 mL/min/kg

## CC(C)c1ccc(NC(=O)[C@H](CCc2ccccc2)NC(=O)[C@@H](N)CC(=O)N(CCN)CCN)cc1 [Compound 91]
  Cmax: 2670 ng/mL
  clearance: 98.2 mL/min/kg

## NCCN(CCN)C(=O)C[C@H](N)C(=O)N[C@@H](CCc1ccccc1)C(=O)NCc1ccc(OC2CCOCC2)cc1 [Compound 133]
  Cmax: 1270 ng/mL
  clearance: 88.3 mL/min/kg

## CCOc1c(F)cc(NC(=O)[C@H](CCc2ccccc2)NC(=O)[C@@H](N)CC(=O)N(CCN)CCN)cc1F.Cl.Cl.Cl [Compound 352, (1S)-2-[bis(2-azaniumylethyl)carbamoyl]-1-{[(1S)-1-[(4-ethoxy-3,5-difluorophenyl)carbamoyl]-3-phenylpropyl]carbamoyl}ethan-1-aminium trichloride]
  Cmax: 2440 ng/mL
  clearance: 177 mL/min/kg

## Cl.Cl.Cl.Cl.N[C@@H]1CN(C(=O)CC[C@H](N)C(=O)N[C@H](Cc2ccc(C(F)(F)F)cc2)C(=O)Nc2cnc3ccccc3c2)C[C@@H]1N [Compound 30, 3-[(1S)-1-{[(1R)-1-carbamoyl-2-[4-(trifluoromethyl)phenyl]ethyl]carbamoyl}-4-[(3R,4S)-3,4-diazaniumylpyrrolidin-1-yl]-4-oxobutan-1-aminium]quinolin-1-ium tetrachloride]
  Cmax: 7610 ng/mL
  clearance: 56 mL/min/kg

## NCCN(CCN)C(=O)C[C@H](N)C(=O)N[C@@H](CCc1ccccc1)C(=O)NCc1ccc(Oc2ccccn2)cc1 [Compound 110]
  Cmax: 1890 ng/mL
  clearance: 91.2 mL/min/kg
